The kinase profiling compilation of Christmann-Franck et al. (2016)

Experiments:
Experiment in all cases: radiometric filter-binding kinase assay, Kinase HotSpot
Settings in all cases: compound 0.5 µM; ATP 10 µM
ABL1 (human) = ABL1 (human) (UniProt P00519)
ACVRL1 (human) = ACVRL1 (human) (UniProt P37023)
BRSK2 (human) = BRSK2 (human) (UniProt Q8IWQ3)
CAMK1G (human) = CAMK1G (human) (UniProt Q96NX5)
CAMK2D (human) = CAMK2D (human) (UniProt Q13557)
CAMK2G (human) = CAMK2G (human) (UniProt Q13555)
CDK3 CCNE1 (human) = CDK3 CCNE1 (human) (UniProt Q00526+P24864)
CDK6 CCND1 (human) = CDK6 CCND1 (human) (UniProt Q00534+P24385)
CDK6 CCND3 (human) = CDK6 CCND3 (human) (UniProt P30281+Q00534)
CDK7 CCNH MNAT1 (human) = CDK7 CCNH MNAT1 (human) (UniProt P50613+P51948+P51946)
CDK9 CCNK (human) = CDK9 CCNK (human) (UniProt O75909+P50750)
CLK1 (human) = CLK1 (human) (UniProt P49759)
CSF1R (human) = CSF1R (human) (UniProt P07333)
CSNK1A1 (human) = CSNK1A1 (human) (UniProt P48729)
DYRK1A (human) = DYRK1A (human) (UniProt Q13627)
EPHA4 (human) = EPHA4 (human) (UniProt P54764)
EPHB4 (human) = EPHB4 (human) (UniProt P54760)
FGFR2 (human) = FGFR2 (human) (UniProt P21802)
FYN (human) = FYN (human) (UniProt P06241)
GSK3A (human) = GSK3A (human) (UniProt P49840)
HIPK1 (human) = HIPK1 (human) (UniProt Q86Z02)
MAP2K2 (human) = MAP2K2 (human) (UniProt P36507)
MAP3K10 (human) = MAP3K10 (human) (UniProt Q02779)
MAP3K2 (human) = MAP3K2 (human) (UniProt Q9Y2U5)
MAP4K5 (human) = MAP4K5 (human) (UniProt Q9Y4K4)
MERTK (human) = MERTK (human) (UniProt Q12866)
NEK11 (human) = NEK11 (human) (UniProt Q8NG66)
NEK4 (human) = NEK4 (human) (UniProt P51957)
PLK2 (human) = PLK2 (human) (UniProt Q9NYY3)
PTK2B (human) = PTK2B (human) (UniProt Q14289)
PTK6 (human) = PTK6 (human) (UniProt Q13882)
RPS6KA2 KD1 KD2 (human) = RPS6KA2 KD1 KD2 (human) (UniProt Q15349)
RPS6KA4 KD2 (human) = RPS6KA4 KD2 (human) (UniProt O75676)
RPS6KA5 KD2 (human) = RPS6KA5 KD2 (human) (UniProt O75582)
SLK (human) = SLK (human) (UniProt Q9H2G2)
SRC (human) = SRC (human) (UniProt P12931)
SRMS (human) = SRMS (human) (UniProt Q9H3Y6)
TAOK2 (human) = TAOK2 (human) (UniProt Q9UL54)
TEC (human) = TEC (human) (UniProt P42680)
TSSK2 (human) = TSSK2 (human) (UniProt Q96PF2)
WNK2 (human) = WNK2 (human) (UniProt Q9Y3S1)

Sequence of EPHB4 (human) (P54760 whole entry, looked up): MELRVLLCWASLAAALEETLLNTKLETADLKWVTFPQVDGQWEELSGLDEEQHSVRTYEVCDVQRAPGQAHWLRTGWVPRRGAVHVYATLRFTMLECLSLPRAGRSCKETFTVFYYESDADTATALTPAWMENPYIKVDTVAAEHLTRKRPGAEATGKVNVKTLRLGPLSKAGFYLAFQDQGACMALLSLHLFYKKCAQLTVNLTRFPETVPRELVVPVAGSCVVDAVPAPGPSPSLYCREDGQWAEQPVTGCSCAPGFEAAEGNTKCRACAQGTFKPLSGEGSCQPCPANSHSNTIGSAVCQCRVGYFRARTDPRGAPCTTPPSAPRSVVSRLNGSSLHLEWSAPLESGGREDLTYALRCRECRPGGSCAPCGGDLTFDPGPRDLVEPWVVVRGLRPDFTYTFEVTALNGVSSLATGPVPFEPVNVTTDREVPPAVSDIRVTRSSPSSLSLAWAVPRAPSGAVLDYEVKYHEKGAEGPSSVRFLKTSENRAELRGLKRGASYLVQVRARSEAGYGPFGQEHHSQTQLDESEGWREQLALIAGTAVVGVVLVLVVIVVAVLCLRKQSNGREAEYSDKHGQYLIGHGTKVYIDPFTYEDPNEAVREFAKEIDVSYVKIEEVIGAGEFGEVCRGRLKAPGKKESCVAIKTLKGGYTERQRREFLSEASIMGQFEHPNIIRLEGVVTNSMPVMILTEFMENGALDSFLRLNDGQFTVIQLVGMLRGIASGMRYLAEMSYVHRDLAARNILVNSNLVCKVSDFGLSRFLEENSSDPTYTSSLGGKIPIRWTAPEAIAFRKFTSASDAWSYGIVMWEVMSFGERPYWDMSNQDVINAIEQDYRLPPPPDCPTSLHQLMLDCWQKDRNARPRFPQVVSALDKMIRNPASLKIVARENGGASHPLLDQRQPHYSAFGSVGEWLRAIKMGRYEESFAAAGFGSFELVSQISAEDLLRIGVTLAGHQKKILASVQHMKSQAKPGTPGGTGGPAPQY
Sequence of CDK7 CCNH MNAT1 (human) (P50613 whole entry, looked up): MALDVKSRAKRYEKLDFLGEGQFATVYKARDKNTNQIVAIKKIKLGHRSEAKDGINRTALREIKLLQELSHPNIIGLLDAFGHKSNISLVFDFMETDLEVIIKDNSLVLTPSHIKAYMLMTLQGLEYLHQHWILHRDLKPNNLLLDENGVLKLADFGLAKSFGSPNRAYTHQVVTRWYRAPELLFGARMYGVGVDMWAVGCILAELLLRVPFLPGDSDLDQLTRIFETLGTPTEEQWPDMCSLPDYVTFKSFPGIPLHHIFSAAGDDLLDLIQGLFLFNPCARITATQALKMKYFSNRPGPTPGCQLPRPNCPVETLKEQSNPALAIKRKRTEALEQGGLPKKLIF
Sequence of CDK7 CCNH MNAT1 (human) (P51946 whole entry, looked up): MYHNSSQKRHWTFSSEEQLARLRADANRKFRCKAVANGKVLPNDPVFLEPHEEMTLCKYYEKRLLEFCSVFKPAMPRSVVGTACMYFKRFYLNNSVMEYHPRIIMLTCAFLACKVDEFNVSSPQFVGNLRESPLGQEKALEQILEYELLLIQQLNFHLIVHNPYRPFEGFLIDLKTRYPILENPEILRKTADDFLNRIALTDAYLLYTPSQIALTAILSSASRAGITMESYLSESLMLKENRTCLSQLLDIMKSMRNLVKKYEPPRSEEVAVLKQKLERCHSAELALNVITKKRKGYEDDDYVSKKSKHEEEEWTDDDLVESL
Sequence of CDK7 CCNH MNAT1 (human) (P51948 whole entry, looked up): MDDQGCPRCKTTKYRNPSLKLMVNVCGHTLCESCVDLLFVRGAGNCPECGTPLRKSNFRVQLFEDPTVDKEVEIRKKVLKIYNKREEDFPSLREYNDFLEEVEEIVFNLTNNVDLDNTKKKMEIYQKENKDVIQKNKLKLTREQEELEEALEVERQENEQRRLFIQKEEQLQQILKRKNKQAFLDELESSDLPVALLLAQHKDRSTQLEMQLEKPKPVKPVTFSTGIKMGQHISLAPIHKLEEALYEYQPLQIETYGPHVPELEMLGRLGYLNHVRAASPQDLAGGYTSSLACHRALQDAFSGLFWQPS
Sequence of FGFR2 (human) (P21802 whole entry, looked up): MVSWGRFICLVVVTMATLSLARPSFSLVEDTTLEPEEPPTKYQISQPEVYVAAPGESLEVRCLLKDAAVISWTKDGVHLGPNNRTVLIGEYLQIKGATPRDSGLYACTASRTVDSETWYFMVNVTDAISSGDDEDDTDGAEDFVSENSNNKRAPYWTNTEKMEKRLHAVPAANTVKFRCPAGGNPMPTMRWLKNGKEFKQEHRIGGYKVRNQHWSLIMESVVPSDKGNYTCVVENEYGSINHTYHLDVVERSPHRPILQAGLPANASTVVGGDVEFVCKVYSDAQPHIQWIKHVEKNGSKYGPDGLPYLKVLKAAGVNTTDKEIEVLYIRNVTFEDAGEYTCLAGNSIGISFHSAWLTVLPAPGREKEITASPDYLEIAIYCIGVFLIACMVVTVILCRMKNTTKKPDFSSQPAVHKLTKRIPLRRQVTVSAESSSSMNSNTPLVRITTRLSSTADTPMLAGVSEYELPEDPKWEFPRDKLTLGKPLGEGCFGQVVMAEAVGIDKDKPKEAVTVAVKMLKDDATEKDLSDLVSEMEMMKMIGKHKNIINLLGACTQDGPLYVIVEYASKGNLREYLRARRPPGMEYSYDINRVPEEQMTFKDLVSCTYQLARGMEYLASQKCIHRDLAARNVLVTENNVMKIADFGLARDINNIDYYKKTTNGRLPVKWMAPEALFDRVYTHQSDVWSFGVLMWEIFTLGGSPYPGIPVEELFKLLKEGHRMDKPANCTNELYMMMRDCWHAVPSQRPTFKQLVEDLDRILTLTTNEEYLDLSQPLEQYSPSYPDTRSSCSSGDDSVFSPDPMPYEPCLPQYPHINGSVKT
Sequence of SRC (human) (P12931 whole entry, looked up): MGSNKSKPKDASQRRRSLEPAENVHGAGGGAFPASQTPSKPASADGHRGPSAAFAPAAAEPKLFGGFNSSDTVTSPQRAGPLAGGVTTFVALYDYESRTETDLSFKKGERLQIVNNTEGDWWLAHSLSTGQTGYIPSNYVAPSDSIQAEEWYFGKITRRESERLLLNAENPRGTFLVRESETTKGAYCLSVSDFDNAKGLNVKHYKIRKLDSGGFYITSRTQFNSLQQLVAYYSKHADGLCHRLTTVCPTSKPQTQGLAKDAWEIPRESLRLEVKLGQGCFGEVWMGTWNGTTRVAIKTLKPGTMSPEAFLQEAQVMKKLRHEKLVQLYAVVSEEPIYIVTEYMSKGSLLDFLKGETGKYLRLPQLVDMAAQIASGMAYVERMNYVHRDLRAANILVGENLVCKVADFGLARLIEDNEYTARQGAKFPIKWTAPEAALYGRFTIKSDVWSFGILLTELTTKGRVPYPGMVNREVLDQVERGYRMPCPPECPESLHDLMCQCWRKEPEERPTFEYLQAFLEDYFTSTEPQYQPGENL
Sequence of NEK11 (human) (Q8NG66 whole entry, looked up): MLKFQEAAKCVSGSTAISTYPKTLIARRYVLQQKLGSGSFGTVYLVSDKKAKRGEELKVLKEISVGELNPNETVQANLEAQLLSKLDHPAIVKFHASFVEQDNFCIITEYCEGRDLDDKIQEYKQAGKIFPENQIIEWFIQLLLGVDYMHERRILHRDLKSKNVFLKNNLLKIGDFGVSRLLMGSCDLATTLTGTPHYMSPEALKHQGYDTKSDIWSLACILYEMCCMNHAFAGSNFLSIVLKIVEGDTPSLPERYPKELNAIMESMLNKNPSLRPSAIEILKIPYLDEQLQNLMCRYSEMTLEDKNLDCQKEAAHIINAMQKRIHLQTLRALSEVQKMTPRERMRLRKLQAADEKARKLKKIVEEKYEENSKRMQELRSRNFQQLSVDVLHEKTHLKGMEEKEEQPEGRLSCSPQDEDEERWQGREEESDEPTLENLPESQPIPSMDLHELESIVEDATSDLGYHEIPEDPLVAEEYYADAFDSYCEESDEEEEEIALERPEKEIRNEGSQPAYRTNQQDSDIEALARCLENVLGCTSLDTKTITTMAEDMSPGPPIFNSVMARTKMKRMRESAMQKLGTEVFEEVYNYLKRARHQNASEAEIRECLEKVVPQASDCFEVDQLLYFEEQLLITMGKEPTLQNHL
Sequence of TSSK2 (human) (Q96PF2 whole entry, looked up): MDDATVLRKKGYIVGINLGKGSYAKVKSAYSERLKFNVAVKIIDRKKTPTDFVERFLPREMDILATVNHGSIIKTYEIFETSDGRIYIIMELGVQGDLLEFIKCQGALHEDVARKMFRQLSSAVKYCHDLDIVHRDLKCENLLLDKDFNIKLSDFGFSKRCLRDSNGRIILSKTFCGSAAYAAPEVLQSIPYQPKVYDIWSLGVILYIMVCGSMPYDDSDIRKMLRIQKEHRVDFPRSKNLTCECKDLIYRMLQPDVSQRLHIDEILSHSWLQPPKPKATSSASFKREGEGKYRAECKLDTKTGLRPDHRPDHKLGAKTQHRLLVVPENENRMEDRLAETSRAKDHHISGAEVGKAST
Sequence of SRMS (human) (Q9H3Y6 whole entry, looked up): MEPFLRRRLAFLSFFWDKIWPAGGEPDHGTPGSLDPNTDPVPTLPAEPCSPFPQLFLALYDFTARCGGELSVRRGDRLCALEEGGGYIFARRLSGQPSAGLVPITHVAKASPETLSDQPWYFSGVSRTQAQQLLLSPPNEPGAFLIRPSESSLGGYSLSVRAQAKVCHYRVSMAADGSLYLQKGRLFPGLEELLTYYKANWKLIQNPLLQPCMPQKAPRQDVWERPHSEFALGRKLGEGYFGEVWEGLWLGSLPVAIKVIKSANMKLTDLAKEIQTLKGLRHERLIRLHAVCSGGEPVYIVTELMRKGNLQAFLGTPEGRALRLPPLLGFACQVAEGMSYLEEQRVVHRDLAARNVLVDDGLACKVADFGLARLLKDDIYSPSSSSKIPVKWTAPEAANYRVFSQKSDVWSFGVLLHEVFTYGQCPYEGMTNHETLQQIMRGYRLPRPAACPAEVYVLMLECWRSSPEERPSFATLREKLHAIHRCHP

**Q.** How did the residual activity (ABL1 (human)) turn out when `Cc1ccc(NC2=CC(=O)c3sc(C)nc3C2=O)cc1` was run?
**A.** 90.8%

**Q.** What about the residual activity (ACVRL1 (human)) of the same compound?
**A.** 101%

**Q.** And the residual activity (BRSK2 (human))?
**A.** 93.1%

**Q.** What about the residual activity (CAMK1G (human)) of the same compound?
**A.** 95%

**Q.** And the residual activity (CAMK2D (human))?
**A.** 93.2%

**Q.** What about the residual activity (CAMK2G (human)) of the same compound?
**A.** 90.4%

**Q.** What about the residual activity (CDK3 CCNE1 (human)) of the same compound?
**A.** 88.5%

**Q.** And the residual activity (CDK6 CCND1 (human))?
**A.** 101%

**Q.** And the residual activity (CDK6 CCND3 (human))?
**A.** 99.6%

**Q.** And the residual activity (CDK7 CCNH MNAT1 (human))?
**A.** 95.4%

**Q.** What about the residual activity (CDK9 CCNK (human)) of the same compound?
**A.** 84.4%

**Q.** What about the residual activity (CLK1 (human)) of the same compound?
**A.** 100%

**Q.** And the residual activity (CSF1R (human))?
**A.** 89.9%

**Q.** And the residual activity (CSNK1A1 (human))?
**A.** 106%

**Q.** And the residual activity (DYRK1A (human))?
**A.** 103%

**Q.** And the residual activity (EPHA4 (human))?
**A.** 86.5%

**Q.** What about the residual activity (EPHB4 (human)) of the same compound?
**A.** 89.7%

**Q.** What about the residual activity (FGFR2 (human)) of the same compound?
**A.** 91%

**Q.** And the residual activity (FYN (human))?
**A.** 95.6%

**Q.** And the residual activity (GSK3A (human))?
**A.** 102%

**Q.** What about the residual activity (HIPK1 (human)) of the same compound?
**A.** 96.7%

**Q.** And the residual activity (MAP2K2 (human))?
**A.** 98.8%

**Q.** And the residual activity (MAP3K10 (human))?
**A.** 94.6%

**Q.** What about the residual activity (MAP3K2 (human)) of the same compound?
**A.** 93.3%

**Q.** What about the residual activity (MAP4K5 (human)) of the same compound?
**A.** 96.9%

**Q.** What about the residual activity (MERTK (human)) of the same compound?
**A.** 80.5%

**Q.** What about the residual activity (NEK11 (human)) of the same compound?
**A.** 98.3%

**Q.** And the residual activity (NEK4 (human))?
**A.** 95.3%

**Q.** What about the residual activity (PLK2 (human)) of the same compound?
**A.** 95.1%

**Q.** What about the residual activity (PTK2B (human)) of the same compound?
**A.** 90.2%

**Q.** What about the residual activity (PTK6 (human)) of the same compound?
**A.** 89.2%

**Q.** What about the residual activity (RPS6KA2 KD1 KD2 (human)) of the same compound?
**A.** 82.5%

**Q.** And the residual activity (RPS6KA4 KD2 (human))?
**A.** 88.4%

**Q.** And the residual activity (RPS6KA5 KD2 (human))?
**A.** 87.7%

**Q.** And the residual activity (SLK (human))?
**A.** 80.6%

**Q.** And the residual activity (SRC (human))?
**A.** 79.6%

**Q.** What about the residual activity (SRMS (human)) of the same compound?
**A.** 82.4%

**Q.** And the residual activity (TAOK2 (human))?
**A.** 96.6%

**Q.** What about the residual activity (TEC (human)) of the same compound?
**A.** 117%

**Q.** And the residual activity (TSSK2 (human))?
**A.** 98.3%

**Q.** And the residual activity (WNK2 (human))?
**A.** 97.7%

**Q.** Which results are given for `CC(=O)c1ccc(N2CCOCC2)cc1O`?
**A.** residual activity (ABL1 (human)): 98.9%; residual activity (ACVRL1 (human)): 103%; residual activity (BRSK2 (human)): 100%; residual activity (CAMK1G (human)): 101%; residual activity (CAMK2D (human)): 100%; residual activity (CAMK2G (human)): 90.2%; residual activity (CDK3 CCNE1 (human)): 102%; residual activity (CDK6 CCND1 (human)): 99.3%; residual activity (CDK6 CCND3 (human)): 97.4%; residual activity (CDK7 CCNH MNAT1 (human)): 105%; residual activity (CDK9 CCNK (human)): 106%; residual activity (CLK1 (human)): 110%; residual activity (CSF1R (human)): 100%; residual activity (CSNK1A1 (human)): 110%; residual activity (DYRK1A (human)): 98%; residual activity (EPHA4 (human)): 101%; residual activity (EPHB4 (human)): 97.6%; residual activity (FGFR2 (human)): 108%; residual activity (FYN (human)): 103%; residual activity (GSK3A (human)): 101%; residual activity (HIPK1 (human)): 93.9%; residual activity (MAP2K2 (human)): 99.8%; residual activity (MAP3K10 (human)): 104%; residual activity (MAP3K2 (human)): 109%; residual activity (MAP4K5 (human)): 102%; residual activity (MERTK (human)): 101%; residual activity (NEK11 (human)): 98.6%; residual activity (NEK4 (human)): 103%; residual activity (PLK2 (human)): 104%; residual activity (PTK2B (human)): 102%; residual activity (PTK6 (human)): 104%; residual activity (RPS6KA2 KD1 KD2 (human)): 98.6%; residual activity (RPS6KA4 KD2 (human)): 103%; residual activity (RPS6KA5 KD2 (human)): 105%; residual activity (SLK (human)): 105%; residual activity (SRC (human)): 104%; residual activity (SRMS (human)): 94.7%; residual activity (TAOK2 (human)): 107%; residual activity (TEC (human)): 139%; residual activity (TSSK2 (human)): 102%; residual activity (WNK2 (human)): 101%
